Measured values as given in US20210228523A1, “MODULATORS OF SESTRIN-GATOR2 INTERACTION AND USES THEREOF” (Navitor Pharmaceuticals, Inc., priority 2017, published 2021).

Each compound was assayed against T1, GATOR2/Sestrin2 complexes (Homo sapiens, UniProt P58004) (assay: In vitro PPI assay (Method 1; Western blot assay): Sestrin2 bound to GATOR2 after compound addition to immunoprecipitated FLAG-WDR24 complex). Conditions: 25 μM, % activity relative to leucine (25 μM = 100%).
T1 construct: endogenous in cells; host or cells: HEK293T cells stably expressing FLAG-WDR24 (lentiviral, pLJM60)
T1 sequence (P58004 1-480): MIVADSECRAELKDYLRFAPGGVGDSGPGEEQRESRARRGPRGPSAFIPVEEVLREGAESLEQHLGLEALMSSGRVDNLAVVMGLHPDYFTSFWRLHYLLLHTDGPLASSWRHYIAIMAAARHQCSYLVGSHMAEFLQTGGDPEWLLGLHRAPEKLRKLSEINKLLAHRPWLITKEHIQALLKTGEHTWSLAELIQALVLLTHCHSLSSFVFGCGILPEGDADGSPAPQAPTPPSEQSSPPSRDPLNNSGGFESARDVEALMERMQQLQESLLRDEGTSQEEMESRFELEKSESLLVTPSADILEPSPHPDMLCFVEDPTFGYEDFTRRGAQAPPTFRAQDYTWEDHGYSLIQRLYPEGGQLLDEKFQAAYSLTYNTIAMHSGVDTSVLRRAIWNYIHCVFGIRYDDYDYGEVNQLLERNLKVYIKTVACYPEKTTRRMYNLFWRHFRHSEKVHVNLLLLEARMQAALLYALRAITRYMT
Assay type: binding
Source text: This screening assay measured test compound activity in vitro on GATOR2/Sestrin2 complexes purified via immunoprecipitation of stably expressed FLAG-WDR24 from HEK293T cells. HEK293T cells (293 Ts) were engineered to stably express N-terminally tagged FLAG-WDR24 via transduction by lentivirus. Lentiviruses were produced by co-transfection of the lentiviral transfer vector pLJM60 with the […] into HEK-293T cells using the XTremeGene 9 transfection reagent (Roche Diagnostics). The media was changed 24 hours post-transfection to Dulbecco's Modified Eagle's media (DMEM) supplemented with 30% Inactivated Fetal Serum. The virus-containing supernatants were collected 48 and 72 hours after transfection and passed through a 0.45 μm filter to eliminate cells. Target cells in 6-well tissue culture plates were infected in media containing 8 μg/mL polybrene and spin infections were performed by centrifugation at 2,200 rpm for 1 hour. Twenty-four hours after infection, the virus was removed and the cells selected with the appropriate antibiotic. Cells were then grown in DMEM supplemented with 10% fetal bovine serum and antibiotics.
Seventy-two hours later, cells were placed in standard RPMI media formulated with no amino acids and supplemented with 5 mM Glucose (−AA RPMI, US Biological Life Sciences) for 1 hour then subsequently lysed in lysis buffer (40 mM HEPES, 1% Triton, 10 mM sodium β-glycerophosphate, 10 mM sodium pyrophosphate, 2.5 mM MgCl2 and protease inhibitors). To isolate the FLAG-WDR24/endogenous-Sestrin2 complex, crude lysate (equivalent to 2-4 mg of total protein) in a volume of 1 ml was subjected to immunoprecipitation with 30 μl of anti-flag resin (SIGMA) for 2 hours at 4° C., washed twice in cold lysis buffer plus 0.5M NaCl and resuspended in 1 ml of cold cytosolic buffer (40 mM HEPES pH 7.4, 140 mM KCl, 10 mM NaCl, 2.5 mM MgCl2, 0.1% TritonX-100). […] After the incubation period, samples were centrifuged to pellet the FLAG-WDR24/endogenous-Sestrin2 complex bound to the anti-flag resin, the supernatant was completely removed and resin was resuspended in SDS-PAGE sample buffer and boiled for 5 minutes. Samples were then processed by SDS-PAGE and western blots were performed with anti-FLAG (SIGMA) and anti-Sestrin2 (Cell Signaling Technology) antibodies as described in L. Chantranupong, et al., Cell Reports 9:1-8 (2014).
The resulting western blots were scanned and band intensities corresponding to Sestrin2 and FLAG-WDR24 were quantified using the LI-COR® imaging platform. To determine the amount of Sestrin2 bound to GATOR2 for each condition, the band intensity for Sestrin2 was normalized to the band intensity of FLAG-WDR24. […]
72 hours later, cells were placed in standard RPMI media formulated with no amino acids and supplemented with 5 mM Glucose (−AA RPMI, USBiological Life Sciences) for 1 hour then subsequently lysed in lysis buffer (40 mM HEPES, 1% Triton, 10 mM Sodium Beta-Glycerophosphate, 10 mM Sodium Pyrophosphate, 2.5 mM MgCl2 and protease inhibitors). The Flag-WDR24/endogenous-Sestrin2 complex was isolated as follows: crude lysate (equivalent to 2-4 mg of total protein) in a volume of 1 ml was subjected to immunoprecipitation (IP) with 30 μl of anti-flag resin (SIGMA) for 2 hours at 4° C., washed twice in cold lysis buffer plus 0.5M NaCl and resuspended in 1 ml of cold cytosolic buffer (40 mM HEPES pH 7.4, 140 mM KCl, 10 mM NaCl, 2.5 mM MgCl2, 0.1% TritonX-100). Compounds were then added to each sample at a given concentration of 25 μM and incubated with rotation at 4° C. for 30 minutes. After the incubation period, samples were centrifuged to pellet the Flag-WDR24/endogenous-Sestrin2 complex bound to the anti-flag resin, the supernatant was completely removed and resin was resuspended in sodium dodecyl sulfate-polyacrylamide gel electrophoresis (SDS-PAGE) sample buffer and boiled for 5 minutes. […]

Row | Compound | Activity of Leucine: % Activity
1 | CC(C)C[C@H](N)C(=O)N1CCCC1 [Compound I-154] | C (a % activity relative to leucine of between -40 and 40%)
2 | CC(C)CNC(=O)[C@@H](N)CC(C)C [Compound I-160] | C (a % activity relative to leucine of between -40 and 40%)
3 | CC(C)C[C@H](NC(=O)C1CCCCC1)C(=O)O [Compound I-22, (S)-2-(Cyclohexanecarboxamido)-4-methylpentanoic Acid] | C (a % activity relative to leucine of between -40 and 40%)
4 | CSCC[C@H](N)C(=O)O [Compound I-30] | A (a % activity relative to leucine of ≥40%)
5 | CC(C[C@H](N)C(=O)O)C(F)(F)F (stereo in doubt) [Compound I-145, (2S,4R)-2-amino-5,5,5-trifluoro-4-methylpentanoic Acid] | A (a % activity relative to leucine of ≥40%)
6 | CN[C@@H](CC(C)(C)C)C(N)=O [Compound I-49] | C (a % activity relative to leucine of between -40 and 40%)
7 | CC(C)[C@H](O)[C@H](N)C(=O)O [Compound I-27] | A (a % activity relative to leucine of ≥40%)
8 | CN(C)[C@@H](CC(C)(C)C)C(=O)O [Compound I-159] | A (a % activity relative to leucine of ≥40%)
9 | CC(C)C[C@H](N)B1OC(C)(C)C(C)(C)O1 [Compound I-38] | C (a % activity relative to leucine of between -40 and 40%)
10 | CC(C)C[C@H](N)C(=O)N(C)C1CCCC1 [Compound I-162] | C (a % activity relative to leucine of between -40 and 40%)
11 | N[C@@H](CC(F)(F)F)C(=O)O [Compound I-4, (S)-2-amino-4,4,4-trifluorobutanoic Acid] | C (a % activity relative to leucine of between -40 and 40%)
12 | N[C@@H](CC(C(F)(F)F)C(F)(F)F)C(=O)O [Compound I-164, (S)-2-Amino-5,5,5-trifluoro-4-(trifluoromethyl)pentanoic Acid] | A (a % activity relative to leucine of ≥40%)
13 | CC(C)C[C@H](NC(=O)c1ccccc1)C(=O)O [Compound I-15, (S)-2-benzamido-4-methylpentanoic Acid] | C (a % activity relative to leucine of between -40 and 40%)
14 | CC(C)C[C@H](N)C(=O)NS(=O)(=O)c1ccccc1 [Compound I-148] | A (a % activity relative to leucine of ≥40%)
15 | N[C@H](CCCC(F)(F)F)C(=O)O [Compound I-9, (R)-2-amino-6,6,6-trifluorohexanoic Acid] | C (a % activity relative to leucine of between -40 and 40%)
16 | CC(C)C[C@@H](C(=O)O)N(C)C [Compound I-1, (S)-2-(dimethylamino)-4-methylpentanoic Acid] | B (a % activity relative to leucine of ≤−40%)
17 | CC(C)C[C@H](NS(=O)(=O)Cc1ccccc1)C(=O)O [Compound I-18, (S)-4-methyl-2-(phenylmethylsulfonamido)pentanoic Acid] | C (a % activity relative to leucine of between -40 and 40%)
18 | CC(C)C[C@H](N)C(=O)N1CCCCC1 [Compound I-151] | C (a % activity relative to leucine of between -40 and 40%)
19 | CC(C)C(F)(F)[C@H](N)C(=O)O [Compound I-46, (R)-2-amino-3,3-difluoro-4-methylpentanoic Acid] | C (a % activity relative to leucine of between -40 and 40%)
20 | CC(C)C[C@H](N)CC(=O)O [Compound I-34] | C (a % activity relative to leucine of between -40 and 40%)

Row | Compound | Activity of Leucine: % Activity
21 | CNC(=O)[C@@H](N)CC(C)C [Compound I-21, (S)-2-amino-N,4-dimethylpentanamide] | C (a % activity relative to leucine of between -40 and 40%)
22 | CC(C)[C@H](N)C(=O)O [Compound I-28] | C (a % activity relative to leucine of between -40 and 40%)
23 | CC(C)C[C@H](N)S(=O)(=O)O [Compound I-157] | B to C
24 | N[C@H](CC1CCCC1)C(=O)O [Compound I-40] | A (a % activity relative to leucine of ≥40%)
25 | CC(C)C[C@H](N)C(=O)N(CC(C)C)CC(C)C [Compound I-155] | C (a % activity relative to leucine of between -40 and 40%)
26 | COC(=O)/C=C/C(=O)N[C@@H](CC(C)C)C(=O)O [Compound I-45, (S,E)-2-(4-methoxy-4-oxobut-2-enamido)-4-methylpentanoic Acid] | B (a % activity relative to leucine of ≤−40%)
27 | CC(C)C[C@H](NS(C)(=O)=O)C(=O)O [Compound I-19, (S)-4-methyl-2-(methylsulfonamido)pentanoic Acid] | C (a % activity relative to leucine of between -40 and 40%)
28 | CC(C)C[C@H](N)C(=O)N(C(C)C)C(C)C [Compound I-150] | C (a % activity relative to leucine of between -40 and 40%)
29 | N[C@@H](CCCC(F)(F)F)C(=O)O [Compound I-8, (S)-2-amino-6,6,6-trifluorohexanoic Acid] | B (a % activity relative to leucine of ≤−40%)
30 | CC(C)C[C@H](NC(C)C)C(=O)O [Compound I-13, (S)-2-(isopropylamino)-4-methylpentanoic Acid] | C (a % activity relative to leucine of between -40 and 40%)
31 | CC(C)C[C@H](N)C(=O)N1CCCC[C@@H]1C [Compound I-153] | C (a % activity relative to leucine of between -40 and 40%)
32 | CC(C)C[C@H](N)C(=O)N(C)CC(C)C [Compound I-152] | C (a % activity relative to leucine of between -40 and 40%)
33 | CC(C)C[C@H](N)C(=O)O [Compound I-44] | A (a % activity relative to leucine of ≥40%)
34 | CC(C)C[C@H](N)C(=O)Nc1ccccc1 [Compound I-20, (S)-2-amino-4-methyl-N-phenylpentanamide] | C (a % activity relative to leucine of between -40 and 40%)
35 | CN[C@@H](CC(C)C)C(=O)O.Cl [Compound I-24] | A (a % activity relative to leucine of ≥40%)
36 | CC(C)C[C@@H](N)B1OC(C)(C)C(C)(C)O1 [Compound I-10] | C (a % activity relative to leucine of between -40 and 40%)
37 | CC(C)C[C@](C)(N)C(=O)O [Compound I-32] | A (a % activity relative to leucine of ≥40%)
38 | CC[C@@H](C)[C@H](N)C(=O)O [Compound I-29] | A (a % activity relative to leucine of ≥40%)
39 | CC(C)C[C@H](N)C(=O)N1CCCC[C@H]1C [Compound I-161] | C (a % activity relative to leucine of between -40 and 40%)
